Reference: ChEMBL document CHEMBL1130110 (J Med Chem, 1997)
pIC50: −log10 of the molar value.

How the values were obtained:
Glucagon receptor [1] = molecular target: T1, Glucagon receptor (Rattus norvegicus, UniProt P30082); assay: pA2 value against Glucagon Receptor; conditions: read-out: pA2 (converted)
Glucagon receptor [2] = molecular target: T1, Glucagon receptor; assay: Binding affinity towards Glucagon receptor in rat liver plasma membranes by displacement of 125 I-labelled glucagon; assay type: cell membranes, Plasma Membrane

T1 sequence (P30082 whole entry): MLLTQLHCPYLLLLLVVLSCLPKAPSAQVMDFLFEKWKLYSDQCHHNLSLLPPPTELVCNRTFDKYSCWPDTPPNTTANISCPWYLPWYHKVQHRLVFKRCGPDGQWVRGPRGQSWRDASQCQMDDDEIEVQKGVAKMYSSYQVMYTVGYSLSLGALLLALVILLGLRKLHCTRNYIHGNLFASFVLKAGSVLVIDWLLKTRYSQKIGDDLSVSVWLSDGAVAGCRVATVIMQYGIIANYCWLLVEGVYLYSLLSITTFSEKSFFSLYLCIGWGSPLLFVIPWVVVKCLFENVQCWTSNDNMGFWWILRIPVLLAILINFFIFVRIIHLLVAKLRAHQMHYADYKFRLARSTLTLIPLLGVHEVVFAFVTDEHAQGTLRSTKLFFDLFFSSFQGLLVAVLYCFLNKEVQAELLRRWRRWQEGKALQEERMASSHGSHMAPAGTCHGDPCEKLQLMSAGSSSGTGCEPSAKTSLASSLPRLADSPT

CSCC[C@H](NC(=O)[C@H](CC(C)C)NC(=O)[C@H](Cc1c[nH]c2ccccc12)NC(=O)[C@H](CCC(N)=O)NC(=O)[C@@H](NC(=O)[C@H](Cc1ccccc1)NC(=O)[C@H](CC(=O)O)NC(=O)[C@H](CCC(N)=O)NC(=O)[C@H](C)NC(=O)[C@H](CCCNC(=N)N)NC(=O)[C@H](CCCNC(=N)N)NC(=O)[C@H](CO)NC(=O)[C@H](CC(=O)O)NC(=O)[C@H](CC(C)C)NC(=O)[C@H](Cc1ccc(O)cc1)NC(=O)[C@H](CCCCN)NC(=O)[C@H](CO)NC(=O)[C@H](Cc1ccc(O)cc1)NC(=O)[C@H](CCC(=O)O)NC(=O)[C@H](CO)NC(=O)[C@@H](NC(=O)[C@H](C)NC(=O)[C@@H](NC(=O)CNC(=O)[C@H](CCC(N)=O)NC(=O)[C@@H](N)CO)[C@@H](C)O)[C@@H](C)O)C(C)C)C(=O)N[C@@H](CC(N)=O)C(=O)N[C@H](C(N)=O)[C@@H](C)O
Kb (Glucagon receptor [1]): 398 nM | pIC50 (Glucagon receptor [2]): 6.90
